Here are results for 18 molecules from patent US20070073056A1, “4-Substituted Pyrazoline Compounds, their Preparation and Use as Medicaments” (LABORATORIOS DEL DR. ESTEVE, S.A., priority 2005, published 2007).

Where a name gives a salt, the structure may show the parent alone. Read-outs that look alike come from different tables or passages of the source.

Experiment [1] concerns the target CB1-receptor (UniProt P20272). In words: binding of the pyrazoline compounds to CB1-receptors (Pharmacological Methods, Part I). More on the design: IC50; species or system human or rat. As to the method: (§1) I. In-vitro Determination of Affinity to CB1/CB2-Receptors
(§2) The in-vitro determination of the affinity of the inventive 4-substituted pyrazoline compounds to CB1/CB2-Rezeptors is carried out as described in the publication of Ruth A. Ross, Heather C. Brockie et al., “Agonist-inverse agonist characterisation at CB1 and CB2 cannabinoid receptors of L-759633, L759656 and AM630”, British Journal of Pharmacology, 126, 665-672, (1999), whereby the transfected human CB1 and CB2 receptors of Receptor Biology, Inc. are used. The radioligand used for both receptors is [^3H]-CP55940. The respective parts of the description is hereby incorporated by reference and forms part of the present disclosure.
(§3) Rat Cerebellum CB1 Binding
(§4) Binding affinity to CB1 receptor was evaluated according to a modification of the method described by Govaerts et al., Eur J Pharmac Sci 23, 233-243 (2004). The respective parts of the description is hereby incorporated by reference and forms part of the present disclosure.
(§5) Briefly, cerebellum from male wistar rats (250-300 g) were carefully dissected on ice and homogenates were prepared with Potter-Helveheim in a cold 50 mM Tris-HCl solution containing 5 mM MgCl2, 1 mM EDTA and 0.25 M sucrose, pH 7.4. The suspension was centrifuged at […] for 5 minutes. The supernatants were collected and centrifuged 50,000×g for 15 minutes. The resulting pellets were then resuspended in Tris-HCl buffer without sucrose, homogenized and incubated for 15 min at 37° C. in an orbital shaker bath and centrifuged again at 50,000×g for 15 min. Pellets were weighted, resuspended in Tris-HCl buffer without sucrose, homogenized with Ultraturrax at 13,500 rpm for 3×5 seconds and alicuoted in 0.9 ml volumes in Eppendorf tubes. Alicuotes were centrifuged at 20,800×g for 5 minutes, supernatants discarded and pellets were frozen at −80° C. until use. Total protein concentration was determined using the Bio-Rad Lowry method based kit. Competitive binding experiments were performed in presence of 1 nM [^3H]-CP 55,940 in siliconized glass tubes containing 100 μg protein/tube resuspended in 1 ml final volume of 50 mM Tris-HCl, 5 mM MgCl2, 1 mM EDTA, 0.5% (w/v) bovine serum albumin, pH 7.4. Compounds were present at various concentrations and the non specific binding was determined in the presence of 10 μM HU-210. After 1 hour incubation at 30° C., the suspension was rapidly filtered through 0.5% PEI pre-treated GF/B fiber filters on a 96-well harvester and washed 3 times with 3 ml ice-cold binding buffer without bovine serum albumin. Radioactivity on filters was measured with Wallac Winspectral 1414 counter by liquid scintillation in 6 ml Ecoscint H (National Diagnostics, U.K.). Assays were made in triplicates.
(§6) Binding data were analyzed by non-linear regression with the software GraphPad Prism Version 3.03.
(§7) The binding of the pyrazoline compounds of general formula I to CB1-receptors was determined according to the method described in the section Pharmacological Methods, Part I.

The target in experiment [2] is CB1-receptor (UniProt P20272). The experiment is described as above. More on the design: other: 10^−7 M; other: 10^−8 M; species or system human or rat. How it is done:
as §1, §2, §3, §4, §5, §6, §7

Setting [3] is: radioligand [3H]-CP55940, read-out: IC50.

On to `COc1ccc([C@@H]2[C@H](C)C(C(=O)NN3CCCCC3)=NN2c2ccc(Cl)cc2Cl)cc1.Cl` (relative stereo) [Example 265, cis-1-(2,4-dichlorophenyl)-5-(4-methoxyphenyl)-4-methyl-N-(piperidin-1-yl)-4,5-dihydro-1H-pyrazole-3-carboxamide hydrochloride], for which the IC50 in experiment [1] (radioligand [3H]-CP55940, hydrochloride, read-out: IC50) amounted to 60 nM. Besides, the Inhibition was determined as 62% in experiment [2] (10^−7 M) and 29.2 in experiment [2] (10^−8 M, in %).

With `CCOC(=O)C1=NN(c2ccc(Cl)cc2Cl)[C@@H](c2ccc(Cl)cc2)[C@@H]1C(F)(F)F` (relative stereo) [Example 416, trans-ethyl 5-(4-chlorophenyl)-1-(2,4-dichlorophenyl)-4-(trifluoromethyl)-4,5-dihydro-1H-pyrazole-3-carboxylate], the IC50 in experiment [1] (setting [3]) worked out at 182 nM. In addition, the Inhibition was 93.5% in experiment [2] (10^−7 M) and 41 in experiment [2] (10^−8 M, in %).

As for `CC1Cc2ccccc2N1NC(=O)C1=NN(c2ccc(Cl)cc2Cl)[C@@H](c2ccc(Cl)cc2)[C@H]1C` (relative stereo) [Example 113, cis-5-(4-chlorophenyl)-1-(2,4-dichlorophenyl)-4-methyl-N-(2-methylindolin-1-yl)-4,5-dihydro-1H-pyrazole-3-carboxamide], the half-maximal inhibitory concentration (IC50) in experiment [1] (setting [3]) amounted to 128 nM. Besides, the Inhibition is 55.5% in experiment [2] (10^−7 M) and 24.7 in experiment [2] (10^−8 M, in %).

`C[C@H]1C(C(=O)NC2CCCCCC2)=NN(c2ccc(Cl)cc2Cl)[C@H]1c1ccc(Cl)cc1` (relative stereo) [Example 123, cis-5-(4-chlorophenyl)-N-cycloheptyl-1-(2,4-dichlorophenyl)-4-methyl-4,5-dihydro-1H-pyrazole-3-carboxamide]: the IC50 in experiment [1] (setting [3]) was 31.9 nM. Besides, the Inhibition came to 90.8% in experiment [2] (10^−7 M) and 39.9 in experiment [2] (10^−8 M, in %).

As to `C[C@@H]1C(C(=O)N[C@H]2CCCC[C@@H]2O)=NN(c2ccc(Cl)cc2Cl)[C@@H]1c1ccc(Cl)cc1` (single isomer, unassigned) [Example 129], the concentration for half-maximal inhibition (IC50) in experiment [1] (setting [3]) worked out at 69 nM. Moreover, the Inhibition in experiment [2] (10^−7 M) is given as 72.3%; in experiment [2] (10^−8 M, in %), 11.6.

In the case of `C[C@H]1C(C(=O)NN2CCCCCC2)=NN(c2ccc(Cl)cc2Cl)[C@H]1c1ccc(Br)cc1.Cl` (relative stereo) [Example 207, cis-N-(azepan-1-yl)-5-(4-bromophenyl)-1-(2,4-dichlorophenyl)-4-methyl-4,5-dihydro-1H-pyrazole-3-carboxamide hydrochloride], the half-inhibitory concentration (IC50) in experiment [1] (setting [3]) is 71 nM. The Inhibition in experiment [2] (10^−7 M) is reported as 73%; in experiment [2] (10^−8 M, in %), 48.3.

Turning to `COc1ccc([C@H]2[C@@H](C)C(C(=O)NN3CC4CCCC4C3)=NN2c2ccc(Cl)cc2Cl)cc1.Cl` (relative stereo) [Example 277, cis-1-(2,4-dichlorophenyl)-N-(hexahydrocyclopenta[c]pyrrol-2(1H)-yl)-5-(4-methoxyphenyl)-4-methyl-4,5-dihydro-1H-pyrazole-3-carboxamide hydrochloride], the IC50 in experiment [1] (setting [3]) was 20 nM. The Inhibition in experiment [2] (10^−7 M) worked out at 61.6%; in experiment [2] (10^−8 M, in %) it was 17.9.

As to `CC1CCCC(C)N1NC(=O)C1=NN(c2ccc(Cl)cc2Cl)[C@H](c2ccc(Cl)cc2)[C@@H]1C` (relative stereo) [Example 103, cis-5-(4-chlorophenyl)-1-(2,4-dichlorophenyl)-N-(2,6-dimethylpiperidin-1-yl)-4-methyl-4,5-dihydro-1H-pyrazole-3-carboxamide], the IC50 in experiment [1] (setting [3]) came to 60.6 nM. Besides, the Inhibition in experiment [2] (10^−7 M) was determined as 55.3%; in experiment [2] (10^−8 M, in %) it was 19.5.

Take `CC1CCCC(NC(=O)C2=NN(c3ccc(Cl)cc3Cl)[C@H](c3ccc(Cl)cc3)[C@@H]2C)C1` (relative stereo) [Example 423, cis-5-(4-chlorophenyl)-1-(2,4-dichlorophenyl)-4-methyl-N-(3-methylcyclohexyl)-4,5-dihydro-1H-pyrazole-3-carboxamide]: in experiment [1] (setting [3]), the IC50 was 45.5 nM. The Inhibition in experiment [2] (10^−7 M) is given as 66.7%; in experiment [2] (10^−8 M, in %) it was 33.1.

For `C[C@@H]1C(C(=O)NN2CCCCC2)=NN(c2ccc(Cl)cc2Cl)[C@@H]1c1ccc(Cl)cc1` (single isomer, unassigned) [Example 419, (−)-cis-5-(4-chlorophenyl)-1-(2,4-dichlorophenyl)-4-methyl-N-(piperidin-1-yl)-4,5-dihydro-1H-pyrazole-3-carboxamide], in experiment [1] (setting [3]), the 50% inhibitory concentration (IC50) was found to be 54.3 nM. The Inhibition in experiment [2] (10^−7 M) was determined as 57.1%; in experiment [2] (10^−8 M, in %), 27.8.

On to `CC1CCCCC1NC(=O)C1=NN(c2ccc(Cl)cc2Cl)[C@H](c2ccc(Cl)cc2)[C@@H]1C` (relative stereo) [Example 424, cis-5-(4-chlorophenyl)-1-(2,4-dichlorophenyl)-4-methyl-N-(2-methylcyclohexyl)-4,5-dihydro-1H-pyrazole-3-carboxamide], for which, in experiment [1] (setting [3]), the IC50 worked out at 29.7 nM. In addition, the Inhibition in experiment [2] (10^−7 M) was found to be 65.7%; in experiment [2] (10^−8 M, in %), 39.3.

For `COc1ccc([C@H]2[C@@H](C)C(C(=O)NN3CCCCCC3)=NN2c2ccc(Cl)cc2Cl)cc1.Cl` (relative stereo) [Example 271, cis-N-(azepan-1-yl)-1-(2,4-dichlorophenyl)-5-(4-methoxyphenyl)-4-methyl-4,5-dihydro-1H-pyrazole-3-carboxamide hydrochloride], the IC50 in experiment [1] (setting [3]) came out at 61 nM. Further, the Inhibition worked out at 73.5% in experiment [2] (10^−7 M) and 30.6 in experiment [2] (10^−8 M, in %).

For `COc1ccc([C@@H]2[C@H](C)C(C(=O)NN3CCc4ccccc43)=NN2c2ccc(Cl)cc2Cl)cc1` (relative stereo) [Example 279, cis-1-(2,4-dichlorophenyl)-N-(indolin-1-yl)-5-(4-methoxyphenyl)-4-methyl-4,5-dihydro-1H-pyrazole-3-carboxamide], the concentration for half-maximal inhibition (IC50) in experiment [1] (setting [3]) was determined as 19 nM. Moreover, the Inhibition in experiment [2] (10^−7 M) is reported as 62.4%; in experiment [2] (10^−8 M, in %), 14.7.

Take `C[C@H]1C(C(=O)NN2CC3CCCC3C2)=NN(c2ccc(Cl)cc2Cl)[C@H]1c1ccc(Br)cc1` (relative stereo) [Example 213, cis-5-(4-bromophenyl)-1-(2,4-dichlorophenyl)-N-(hexahydrocyclopenta[c]pyrrol-2(1H)-yl)-4-methyl-4,5-dihydro-1H-pyrazole-3-carboxamide hydrochloride]: the IC50 in experiment [1] (setting [3]) came out at 53 nM.

For the molecule `C[C@H]1C(C(=O)NN2CCCCC2)=NN(c2ccc(Cl)cc2Cl)[C@H]1c1cc(Br)cs1` (relative stereo) [Example 75, cis-5-(4-Bromo-thiophen-2-yl)-1-(2,4-dichloro-phenyl)-4-methyl-4,5-dihydro-1H-pyrazole-3-carboxylic acid piperidin-1-ylamide], the IC50 in experiment [1] (setting [3]) came to 180 nM.

On to `C[C@H]1C(C(=O)N2CCN(C3CCCCC3)CC2)=NN(c2ccc(Cl)cc2Cl)[C@H]1c1ccc(Cl)cc1` (relative stereo) [Example 5, cis-[5-(4-Chloro-phenyl)-1-(2,4-dichloro-phenyl)-4-methyl-4,5-dihydro-1H-pyrazol-3-yl]-(4-cyclohexyl-piperazin-1-yl)-methanone], for which the 50% inhibitory concentration (IC50) in experiment [1] (setting [3]) came out at 200 nM.

Take `C[C@H]1C(C(=O)NN2CC3CCCC3C2)=NN(c2ccc(Cl)cc2Cl)[C@H]1c1ccc(Cl)cc1` (relative stereo) [Example 108, cis-5-(4-Chlorophenyl)-1-(2,4-dichlorophenyl)-4-methyl-4,5-dihydro-1H-pyrazole-3-carboxylic acid (hexahydrocyclopenta[c]pyrrol-2-yl)-amide hydrochloride]: the IC50 in experiment [1] (setting [3]) was 31.6 nM.

Turning to `C[C@H]1C(C(=O)NN2CCc3ccccc32)=NN(c2ccc(Cl)cc2Cl)[C@H]1c1ccc(Cl)cc1` (relative stereo) [Example 15, cis-5-(4-Chloro-phenyl)-1-(2,4-dichloro-phenyl)-4-methyl-4,5-dihydro-1H-pyrazole-3-carboxylic acid (2,3-dihydro-indol-1-yl)-amide], the IC50 in experiment [1] (setting [3]) was determined as 100 nM.

By IC50 is commonly meant the midpoint of a concentration-inhibition curve.
